Measurements as given in US7109220B2, “Amino substituted pyridinyl methanone compounds useful in treating kinase disorders” (Janssen Pharmaceutica N.V., priority 2003, dated 2006).

Assays:
[1] = target: T1, VEGF-R2 kinase (Rattus norvegicus, UniProt O08775); test: VEGF-R2 Kinase Screening Assay; type: biochemical; conditions: soluble rat VEGF-R2 kinase, 10 μM ATP; read-out: VEGF-R IC50
T1 construct: polyhistidine (N)
Method: (§1) A kinase reaction mixture was prepared containing 50 mM Tris-HCl pH=8, 10 mM MgCl2, 0.1 mM Na3PO4, 1 mM DTT, 10 μM ATP, 0.025 uM biotinylated peptide substrate and 0.8 μCuries per well^33P-γ-ATP [2000–3000 Ci/mmol]. 70 μL of the kinase reaction mixture was dispensed into the well of a streptavidin coated FlashPlate™ (Cat. #SMP103, NEN, Boston, Mass.). 1 μL of test compound stock in 100% DMSO was added to the wells resulting in a final concentration of 1% DMSO in the mixture with a 100 μL final reaction volume. Soluble rat VEGF-R2 kinase^3 was diluted in 50 mM Tris-HCl pH=8.0, 0.1% BSA at a concentration of 5 ng per microliter and 30 μL (150 ng enzyme per test well) was added to each well to initiate the reaction. The reaction was incubated for one hour at 30° C. At the end of the 1-hour incubation, the reaction was terminated by aspirating the reaction mixture from the plate and washing the wells twice with PBS containing 100 mM EDTA. The PLC1 biotinylated peptide substrate became immobilized on the Flashplate™ and the incoporation of ^33P-γ-ATP was measured by reading the plate on a scintillation counter. Inhibition of the enzymatic activity of the VEGF-R was measured by observing a reduced amount of ^33P-γ-ATP incorporated into the immobilized peptide. ^3VEGF-R2 kinase (Vascular Endothelial Growth Factor Receptor-2): a fusion protein containing a polyhistidine tag at the N-terminus followed by amino acids 786–1343 of the rat VEGF-R2 kinase domain GenBank Accession #U93306); Peptide Substrate (Biotin)KHKKLAEGSAYEEV-Amide
(§2) IC50 values listed as >10 or >100 indicate no observed 50% inhibition at the highest dose tested, nor was an inhibition maximum observed.

[2] = target: T2, CDK1:Cyclin-B (Homo sapiens, UniProt P06493); test: CDK1 Screening Assay; type: biochemical; conditions: 10 μM ATP, histone-H1 peptide substrate, 1 hour at 30° C.
T2 construct: purchased New England Biolabs, Beverly, Mass; (CDK1); BIOMOL, Plymouth Meeting, Pa; (Cyclin-B) #6020 (CDK1); #SE-195 (Cyclin-B); host or cells: insect cells
T2 sequence (P06493 whole entry): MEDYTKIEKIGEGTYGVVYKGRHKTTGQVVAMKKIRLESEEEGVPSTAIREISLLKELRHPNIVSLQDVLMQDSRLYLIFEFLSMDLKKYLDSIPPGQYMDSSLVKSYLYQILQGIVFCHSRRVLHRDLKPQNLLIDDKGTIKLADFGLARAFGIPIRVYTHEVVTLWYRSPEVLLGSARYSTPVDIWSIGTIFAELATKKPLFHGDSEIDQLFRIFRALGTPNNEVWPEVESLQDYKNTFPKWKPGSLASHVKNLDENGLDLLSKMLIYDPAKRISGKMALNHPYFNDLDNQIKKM
T2 sequence (P14635 whole entry partner): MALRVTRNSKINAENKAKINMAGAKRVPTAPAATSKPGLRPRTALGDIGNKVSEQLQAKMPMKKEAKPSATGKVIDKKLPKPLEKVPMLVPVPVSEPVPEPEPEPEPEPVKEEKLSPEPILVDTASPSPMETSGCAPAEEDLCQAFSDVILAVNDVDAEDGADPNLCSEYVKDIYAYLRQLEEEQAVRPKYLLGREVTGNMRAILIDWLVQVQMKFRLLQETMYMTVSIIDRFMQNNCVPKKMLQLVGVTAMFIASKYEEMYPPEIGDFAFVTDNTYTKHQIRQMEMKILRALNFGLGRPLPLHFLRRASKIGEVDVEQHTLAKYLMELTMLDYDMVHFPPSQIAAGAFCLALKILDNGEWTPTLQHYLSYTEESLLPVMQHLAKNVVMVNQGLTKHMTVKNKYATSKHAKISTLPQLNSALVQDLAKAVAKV
Method: (§3) A kinase reaction mixture was prepared containing 50 mM Tris-HCl pH=8, 10 mM MgCl2, 0.1 mM Na3PO4, 1 mM DTT, 10 μM ATP, 0.025 μM biotinylated histone-H1 peptide substrate and 0.2 μCuries per well^33P-γ-ATP [2000–3000 Ci/mmol]. 70 μL of the kinase reaction mixture was dispensed into the well of a streptavidin coated FlashPlate™ (Cat. #SMP103, NEN, Boston, Mass.). Then 1 μL of test compound stock in 100% DMSO was added to the wells resulting in a final concentration of 1% DMSO in the reaction with a 100 μL final reaction volume. CDK1:Cyclin-B protein^1 was diluted in 50 mM Tris-HCl pH=8.0, 0.1% BSA at a concentration of 1 ng per microliter. 30 μL (30 ng enzyme per test well) was added to each well to initiate the reaction, The reaction was incubated for one hour at 30° C. At the end of the 1-hour incubation, the reaction was terminated by aspirating the reaction mixture from the plate and washing the wells twice with PBS containing 100 mM EDTA. The histone-H1 biotinylated peptide substrate became immobilized on the Flashplate™ and the incorporation of ^33P-γ-ATP was measured by reading the plate on a scintillation counter. Inhibition of the enzymatic activity of CDK1 was measured by observing a reduced amount of ^33P-γ-ATP incorporated into the immobilized peptide. ^1CDK1 (cyclin dependent kinase 1) was isolated from insect cells expressing both the human CDK1 catalytic subunit and its positive regulatory subunit Cyclin B (CDK1: New England Biolabs, Beverly, Mass., Cat. #6020; Cyclin-B: BIOMOL, Plymouth Meeting, Pa., Cat. #SE-195); Peptide Substrate (Biotin)KTPKKAKKPKTPKKAKKL-Amide.
as §2

[3] = target: T3, CDK2:Cyclin-E (Homo sapiens, UniProt P24941); test: CDK2 Screening Assay; type: biochemical; conditions: 10 μM ATP, histone-H1 peptide substrate
T3 construct: purchased Upstate Biotechnology, Lake Placid, N.Y
Method: as §3
Using the procedure and materials of Example 1, replacing CDK1:Cyclin-B protein with CDK2:Cyclin-E protein^2, the IC50 data for CDK2 is shown in Table 2. ^2CDK2 (cyclin dependent kinase 2) in complex with cyclin E is commercially available (Upstate Biotechnology, Lake Placid, N.Y.); Peptide Substrate (Biotin)KTPKKAKKPKTPKKAKKL-Amide
IC50 values listed as ˜100 indicate no observed 50% inhibition at the highest dose tested, nor was an inhibition maximum observed.

[4] = target: T4, HER2 kinase (Homo sapiens, UniProt P04626); test: HER-2 Kinase Screening Assay; type: biochemical; conditions: HER2 cytoplasmic domain construct, 10 μM ATP
T4 construct: polyhistidine (N); 24 additional non-native amino acids (between the His tag and HER2) (N)
T4 sequence (P04626 676-1255 limits assumed): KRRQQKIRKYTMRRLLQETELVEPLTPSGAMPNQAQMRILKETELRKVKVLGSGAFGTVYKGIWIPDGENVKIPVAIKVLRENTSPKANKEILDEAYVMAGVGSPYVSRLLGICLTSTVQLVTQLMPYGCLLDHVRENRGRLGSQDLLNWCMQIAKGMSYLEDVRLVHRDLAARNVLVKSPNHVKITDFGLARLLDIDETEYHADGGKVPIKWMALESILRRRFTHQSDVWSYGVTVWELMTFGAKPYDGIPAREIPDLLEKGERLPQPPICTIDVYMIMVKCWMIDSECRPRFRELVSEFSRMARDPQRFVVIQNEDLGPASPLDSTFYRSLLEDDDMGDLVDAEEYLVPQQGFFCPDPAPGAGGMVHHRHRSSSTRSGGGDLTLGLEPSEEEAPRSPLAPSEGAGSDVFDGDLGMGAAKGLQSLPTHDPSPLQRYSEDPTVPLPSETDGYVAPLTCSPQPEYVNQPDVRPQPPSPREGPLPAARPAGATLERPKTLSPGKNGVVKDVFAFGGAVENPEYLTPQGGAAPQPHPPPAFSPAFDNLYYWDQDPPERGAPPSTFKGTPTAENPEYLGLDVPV
Method: as §1
Using the procedure and materials of Example 3, replacing VEGF-R2 kinase with HER2^4, the IC50 data for HER2 kinase is shown in Table 4. ^4HER2 (Human Epidermal Growth Factor Receptor-2): a construct containing a polyhistidine tag at the N-terminus followed by 24 additional non-native amino acids beginning at amino acid 676 (Accession number M11730) followed by the remainder of the HER2 cytoplasmic domain; Peptide Substrate (Biotin)KHKKLAEGSAYEEV-Amide.
IC50 values listed as >100 indicate no observed 50% inhibition at the highest dose tested, nor was an inhibition maximum observed.

[5] = tested on: HeLa cervical adenocarcinoma; test: Inhibition of Cell Proliferation (14C-thymidine incorporation), HeLa; type: cell-based; conditions: Homo sapiens
Method: (§4) The ability of a test compound to inhibit the proliferation of cell growth was determined by measuring incorporation of ^14C-labelled thymidine into newly synthesized DNA within the cells. This method was used on cell lines derived from carcinomas originating from several tissues such as HeLa cervical adenocarcinoma (American Type Culture Collection (ATCC), Virginia, Cat. #CCL-2), HCT-116 colon carcinoma (CCL-247), MDA-MB-231 (Xenogen Corp.), PC-3 prostate adenocarcinoma (ATCC CRL-1435) and A375 malignant melanoma (ATCC CRL-1619).
(§5) Using this method, the effect of a compound on cell growth for cells with many different phenotypes can be determined. Cells were trypsinized and counted and 3000–8000 cells were added to each well of a 96-well CytoStar tissue culture treated scintillating microplate (Amersham #RPNQ0160) in complete medium in a volume of 100 μl. Cells were incubated for 24 hours in complete medium at 37° C. in an atmosphere containing 5% CO2. 1 μL of test compound in 100% DMSO was then added to the wells of the plate. DMSO only was added to control wells. Cells were incubated for 24 more hours in complete medium at 37° C. in an atmosphere containing 5% CO2. […] The degree of methyl ^14C-thymidine incorporation was quantified on a Packard Top Count.

[6] = tested on: HCT-116 colon carcinoma; test: Inhibition of Cell Proliferation (14C-thymidine incorporation), HCT-116; type: cell-based; conditions: Homo sapiens
Method: as §4, §5

[7] = tested on: A375 malignant melanoma; test: Inhibition of Cell Proliferation (14C-thymidine incorporation), A375; type: cell-based; conditions: Homo sapiens, A-375
Method: as §4, §5

T1 sequence (O08775 786-1343): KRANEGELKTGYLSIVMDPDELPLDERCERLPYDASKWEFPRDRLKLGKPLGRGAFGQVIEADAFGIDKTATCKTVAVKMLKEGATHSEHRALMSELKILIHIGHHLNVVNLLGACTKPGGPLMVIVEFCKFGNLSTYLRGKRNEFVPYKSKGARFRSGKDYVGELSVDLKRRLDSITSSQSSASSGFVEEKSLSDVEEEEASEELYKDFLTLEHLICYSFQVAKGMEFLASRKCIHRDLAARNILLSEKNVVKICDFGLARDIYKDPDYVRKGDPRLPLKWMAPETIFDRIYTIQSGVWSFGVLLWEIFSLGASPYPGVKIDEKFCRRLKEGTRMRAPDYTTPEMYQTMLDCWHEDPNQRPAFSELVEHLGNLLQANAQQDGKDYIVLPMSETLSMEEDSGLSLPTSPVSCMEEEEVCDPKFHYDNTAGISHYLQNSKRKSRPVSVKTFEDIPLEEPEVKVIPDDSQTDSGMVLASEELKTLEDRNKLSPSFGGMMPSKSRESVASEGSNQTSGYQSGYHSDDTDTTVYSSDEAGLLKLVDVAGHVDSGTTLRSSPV

| SMILES | IC50 [1] [µM] | melting point | IC50 [2] [µM] | IC50 [3] [µM] | IC50 [4] [µM] | IC50 [5] [µM] | IC50 [6] [µM] | IC50 [7] [µM] |
| --- | --- | --- | --- | --- | --- | --- | --- | --- |
| Nc1ccc(C(=O)c2c(F)cccc2F)c(N)n1 [Cpd 1, (2,6-diamino-3-pyridinyl)(2,6-difluorophenyl)methanone] | > 10 | 179 to 181 °C | – | – | – | – | – | – |
| N#Cc1ccc(Nc2ccc(C(=O)c3c(F)cccc3F)c(N)n2)cc1 [Cpd 8, 4-[[6-amino-5-(2,6-difluorobenzoyl)-2-pyridinyl]amino]benzonitrile] | > 10 | 208 to 210 °C (dec.) | – | – | – | – | – | – |
| Nc1nc(Nc2ccc([N+](=O)[O-])cc2)ccc1C(=O)c1c(F)cccc1F [Cpd 9, [2-amino-6-[(4-nitrophenyl)amino]-3-pyridinyl](2,6-difluorophenyl)methanone] | > 10 | 220 to 225 °C | – | – | – | – | – | – |
| CCCCOc1cc(NC(=O)Nc2ccccc2)nc(N)c1C(=O)c1c(F)cccc1F [Cpd 32, 1-[6-Amino-4-butoxy-5-(2,6-difluoro-benzoyl)-pyridin-2-yl]-3-phenyl-urea] | > 100 | – | > 100 | ≥ 100 | > 100 | – | – | – |
| CCCCOc1cc(NC(=S)Nc2ccccc2)nc(N)c1C(=O)c1c(F)cccc1F [Cpd 33, 1-[6-Amino-4-butoxy-5-(2,6-difluoro-benzoyl)-pyridin-2-yl]-3-phenyl-thiourea] | > 100 | – | > 100 | ≥ 100 | > 100 | – | – | – |
| CCCCOc1cc(NC(=O)c2ccccc2)nc(N)c1C(=O)c1c(F)cccc1F [Cpd 34, N-[6-Amino-4-butoxy-5-(2,6-difluoro-benzoyl)-pyridin-2-yl]-benzamide] | > 100 | – | > 100 | ≥ 100 | > 100 | – | – | – |
| CCCCOc1cc(Nc2ccc(S(=O)(=O)N(C)C)cc2)nc(N)c1C(=O)c1c(F)cccc1F [Cpd 35, 4-[6-Amino-4-butoxy-5-(2,6-difluoro-benzoyl)-pyridin-2-ylamino]-N,N-dimethyl-benzenesulfonamide] | > 100 | – | ~1 | 0.62 | > 100 | – | – | – |
| CCCCOc1cc(Nc2ccc(S(N)(=O)=O)cc2)nc(N)c1C(=O)c1c(F)cccc1F [Cpd 36, 4-[6-Amino-4-butoxy-5-(2,6-difluoro-benzoyl)-pyridin-2-ylamino]-benzenesulfonamide] | > 100 | – | 0.28 | 0.07 | 1 | 10.7 | 6.78 | 2.96 |
